Measured values: patent US9175045B2, “Peptidomimetic macrocycles” (Aileron Therapeutics, Inc., priority 2008, dated 2015)
pEC50, pKd: −log10 of the molar value. Numbered stars: 1 amine (or outer) side, 2 acyl side, 3 side chain; on linkers, the order of the positions; unused ones are H or OH. Bridge positions count the residues as written; N and C are the ends. Square brackets hold non-standard residues; d marks the D form. Peptide text beside a SMILES is read from it. * marks the point of attachment. ξ: configuration not given here. ξαMeNle(6-ylidene) = CC(CCCC=[*:3])(N[*:1])C(=O)[*:2]; Aib = CC(C)(N)C(=O)O; Propionyl = CCC(=O)*

Assays:
Jurkat cell line = assay type: cell-based; conditions: for pEC50: 24 h
Description: Jurkat cell line (Clone E6-1, ATCC catalog #TIB-152) is grown in specific serum-supplemented media (RPMI-1640, Invitrogen catalog #22400) as recommended by ATCC. A day prior to the initiation of the study, cells are split at optimal cell density (2×10^5-5×10^5 cells/ml) to assure actively dividing cells. The next day, cells are washed twice in serum-free Opti-MEM media (Invitrogen, Catalog #51985) and cells are then plated at optimal cell density (10,000 cells/well) in 50 μl Opti-MEM media or Opti-MEM supplemented with 2% or 10% human serum (Bioreclamation, catalog #HMSRM) in 96-well white tissue culture plate (Nunc, catalog #136102).
For serum free experiment, crosslinked polypeptides are diluted from 2 mM stocks (100% DMSO) in sterile water to prepare 400 μM working solutions. The crosslinked polypeptides and controls are diluted 10-fold first and then serially two-fold diluted in Opti-MEM in dosing plates to provide concentrations of between 1.2 and 40 μM. 50 μl of each dilution is then added to the appropriate wells of the test plate to achieve final concentrations of the polypeptides equal to between 0.6 to 20 μM. For studies using Opti-MEM supplemented with human serum (Bioreclamation, catalog #HMSRM), crosslinked polypeptides are diluted from 10 mM stocks (100% DMSO) in sterile water to prepare 2 mM working solutions. The crosslinked polypeptides and controls are diluted 10-fold first and then serially two-fold diluted in Opti-MEM in the presence of 2% or 10% of human serum to provide concentrations of the polypeptides equal to between 6.25 to 200 μM in dosing plates. 50 μl of each dilution is then added to the appropriate wells of the test plate to achieve final concentrations of the polypeptides equal to between 3.125 to 100 μM. Controls included wells without polypeptides containing the same concentration of DMSO as the wells containing the macrocycles, wells containing 0.1% Triton X-100 and wells containing no cells. Plates are incubated for 24 hours at 37° C. in humidified 5% CO2 atmosphere.
At the end of the incubation period, CellTiter-Glo assay is performed according to manufacturer's instructions (Promega, catalog #G7573) and luminescence is measured using Synergy HT Plate reader (BioTek). Luminescence correlates with viability. A reduction in viability reflects the ability of the test compounds to induce programmed cell death via BAX and BAK.

human serum proteins = assay: Apparent affinity to human serum proteins (Kd*) by EC50 shift analysis; assay type: in vitro ADME; conditions: nonlinear regression of EC50 shift with serum, n = 1, P = 700 μM for 100% serum
Excerpt: The measurement of apparent Kd values for serum protein by EC50 shift analysis provides a simple and rapid means of quantifying the propensity of experimental compounds to bind HSA and other serum proteins. A linear relationship exists between the apparent EC50 in the presence of serum protein (EC′50) and the amount of serum protein added to an in vitro assay. This relationship is defined by the binding affinity of the compound for serum proteins, expressed as Kd*. This term is an experimentally determined, apparent dissociation constant that may result from the cumulative effects of multiple, experimentally indistinguishable, binding events. The form of this relationship is presented here in Eq. 0.3, and its derivation can be found in Copeland et al, Biorg. Med. Chem. Lett. 2004, 14:2309-2312. [formula] A significant proportion of serum protein binding can be ascribed to drug interactions with HSA, due to the very high concentration of this protein in serum (35-50 g/L or 530-758 μM). To calculate the Kd value for these compounds we have assumed that the shift in EC50 upon protein addition can be ascribed fully to the HSA present in the added serum, where P is 700 μM for 100% serum, P is 70 μM for 10% serum, etc. We further made the simplifying assumption that all of the compounds bind HSA with a 1:1 stoichiometry, so that the term n in Eq. (0.3) is fixed at unity. With these parameters in place we calculated the Kd* value for each stapled peptide from the changes in EC50 values with increasing serum (and serum protein) concentrations by nonlinear regression analysis of Eq. 0.3 using Mathematica 4.1 (Wolfram Research, Inc., www.wolfram.com). EC′50 values in whole blood are estimated by setting P in Eq. 0.3 to 700 μM [HSA].

[1] = Estimated free fraction in blood, calculated from Kd* with [HSA]total 700 μM; assay type: in vitro ADME; conditions: human; [HSA]total set at 700 μM; read-out: Free Fraction est. in blood
Description: The free fraction in blood is estimated per the following equation, as derived by Trainor, Expert Opin. Drug Disc., 2007, 2(1):51-64, where [HSA]total is set at 700 μM. [formula]

CCC(=O)N[C@@H](CCCNC(=N)N)C(=O)N[C@@H](CC(N)=O)C(=O)N[C@H](C(=O)NC(C)(C)C(=O)N[C@@H](CCCNC(=N)N)C(=O)N[C@@H](Cc1c[nH]cn1)C(=O)N[C@@H](CC(C)C)C(=O)NC(C)(C)C(=O)NC1(C)CCCC=CCCCC(C)(C(=O)N[C@@H](C)C(=O)N[C@@H](C)C(=O)N[C@@H](CCCNC(=N)N)C(=O)N[C@@H](CO)C(=O)N[C@H](C(N)=O)[C@@H](C)CC)NC(=O)[C@H](CC(=O)O)NC(=O)C(C)(C)NC(=O)[C@H](C(C)C)NC1=O)[C@@H](C)CC (stereo partly shown) [Compound 9, Pr-RNIAibRHLAib$VAibD$AARSI-NH2] (Propionyl-RNI[Aib]RHL[Aib][ξαMeNle(6-ylidene)]V[Aib]D[ξαMeNle(6-ylidene)]AARSI-NH2; staple 9-13)
pEC50 (Jurkat cell line): 5.96 | pKd (human serum proteins): 5.54 | fraction unbound [1]: 0.0048

CC[C@H](C)[C@H](NC(C)=O)C(=O)N[C@@H](Cc1c[nH]c2ccccc12)C(=O)N[C@H](C(=O)N[C@@H](C)C(=O)N[C@@H](CCC(N)=O)C(=O)N[C@@H](CCC(=O)O)C(=O)N[C@@H](CC(C)C)C(=O)N[C@@H](CCCNC(=N)N)C(=O)NC1(C)CCCC=CCCCC(C)(C(=O)N[C@@H](Cc2ccccc2)C(=O)N[C@@H](CC(N)=O)C(=O)N[C@@H](C)C(=O)N[C@@H](Cc2ccc(O)cc2)C(=O)N[C@@H](Cc2ccc(O)cc2)C(=O)N[C@@H](C)C(=O)N[C@@H](CCCNC(=N)N)C(=O)N[C@@H](CCCNC(=N)N)C(N)=O)NC(=O)[C@H](CC(=O)O)NC(=O)CNC(=O)[C@H]([C@@H](C)CC)NC1=O)[C@@H](C)CC (stereo partly shown) [Compound 10, Ac-IWIAQELR$IGD$FNAYYARR-NH2]
pEC50 (Jurkat cell line): 5.89 | efficacy in serum-free media and in the presence of serum (Jurkat cell line; statement in words): high efficacy in serum-free media, which is substantially reduced in the presence of serum | pKd (human serum proteins): > 7.00 | fraction unbound [1]: < 0.001

CC[C@H](C)[C@H](NC(C)=O)C(=O)N[C@@H](Cc1c[nH]c2ccccc12)C(=O)N[C@H](C(=O)N[C@@H](C)C(=O)N[C@@H](CCC(N)=O)C(=O)N[C@@H](CCC(N)=O)C(=O)N[C@@H](CC(C)C)C(=O)N[C@@H](CCCNC(=N)N)C(=O)NC1(C)CCCC=CCCCC(C)(C(=O)N[C@@H](Cc2ccccc2)C(=O)N[C@@H](CC(N)=O)C(=O)N[C@@H](C)C(=O)N[C@@H](Cc2ccc(O)cc2)C(=O)N[C@@H](Cc2ccc(O)cc2)C(=O)N[C@@H](C)C(=O)N[C@@H](CCCNC(=N)N)C(=O)N[C@@H](CCCNC(=N)N)C(N)=O)NC(=O)[C@H](CC(=O)O)NC(=O)CNC(=O)[C@H]([C@@H](C)CC)NC1=O)[C@@H](C)CC (stereo partly shown) [Compound 11, Ac-IWIAQQLR$IGD$FNAYYARR-NH2]
pEC50 (Jurkat cell line): 5.92 | pKd (human serum proteins): 5.96 | fraction unbound [1]: 0.0018

CC[C@H](C)[C@H](NC(C)=O)C(=O)N[C@@H](Cc1c[nH]c2ccccc12)C(=O)N[C@H](C(=O)N[C@@H](C)C(=O)N[C@@H](CCC(N)=O)C(=O)N[C@@H](C)C(=O)N[C@@H](CC(C)C)C(=O)N[C@@H](CCCNC(=N)N)C(=O)NC1(C)CCCC=CCCCC(C)(C(=O)N[C@@H](Cc2ccccc2)C(=O)N[C@@H](CC(N)=O)C(=O)N[C@@H](C)C(=O)N[C@@H](Cc2ccc(O)cc2)C(=O)N[C@@H](Cc2ccc(O)cc2)C(=O)N[C@@H](C)C(=O)N[C@@H](CCCNC(=N)N)C(=O)N[C@@H](CCCNC(=N)N)C(N)=O)NC(=O)[C@H](CC(=O)O)NC(=O)CNC(=O)[C@H]([C@@H](C)CC)NC1=O)[C@@H](C)CC (stereo partly shown) [Compound 12, Ac-IWIAQALR$IGD$FNAYYARR-NH2]
pEC50 (Jurkat cell line): 5.89 | pKd (human serum proteins): 5.64 | fraction unbound [1]: 0.0038

CC[C@H](C)[C@H](NC(=O)[C@H](Cc1c[nH]c2ccccc12)NC(=O)[C@H](CCCNC(=N)N)NC(C)=O)C(=O)N[C@@H](C)C(=O)N[C@@H](CCC(N)=O)C(=O)N[C@@H](CCC(N)=O)C(=O)N[C@@H](CC(C)C)C(=O)N[C@@H](CCCNC(=N)N)C(=O)NC1(C)CCCC=CCCCC(C)(C(=O)N[C@@H](Cc2ccccc2)C(=O)N[C@@H](CC(N)=O)C(=O)N[C@@H](C)C(=O)N[C@@H](Cc2ccc(O)cc2)C(=O)N[C@@H](Cc2ccc(O)cc2)C(=O)N[C@@H](C)C(=O)N[C@@H](CCCNC(=N)N)C(=O)N[C@@H](CCCNC(=N)N)C(N)=O)NC(=O)[C@H](CC(=O)O)NC(=O)CNC(=O)[C@H]([C@@H](C)CC)NC1=O (stereo partly shown) [Compound 13, Ac-RWIAQQLR$IGD$FNAYYARR-NH2]
pEC50 (Jurkat cell line): 5.82 | pKd (human serum proteins): 5.42 | fraction unbound [1]: 0.0063

CC[C@H](C)[C@H](NC(=O)[C@H](Cc1c[nH]c2ccccc12)NC(=O)[C@H](CCCNC(=N)N)NC(C)=O)C(=O)N[C@@H](C)C(=O)N[C@@H](CCC(N)=O)C(=O)N[C@@H](C)C(=O)N[C@@H](CC(C)C)C(=O)N[C@@H](CCCNC(=N)N)C(=O)NC1(C)CCCC=CCCCC(C)(C(=O)N[C@@H](Cc2ccccc2)C(=O)N[C@@H](CC(N)=O)C(=O)N[C@@H](C)C(=O)N[C@@H](Cc2ccc(O)cc2)C(=O)N[C@@H](Cc2ccc(O)cc2)C(=O)N[C@@H](C)C(=O)N[C@@H](CCCNC(=N)N)C(=O)N[C@@H](CCCNC(=N)N)C(N)=O)NC(=O)[C@H](CC(N)=O)NC(=O)CNC(=O)[C@H]([C@@H](C)CC)NC1=O (stereo partly shown) [Compound 15, Ac-RWIAQALR$1GN$FNAYYARR-NH2]
pEC50 (Jurkat cell line): 6.05 | pKd (human serum proteins): 5.29 | fraction unbound [1]: 0.0084

CC[C@H](C)[C@H](NC(C)=O)C(=O)N[C@@H](Cc1c[nH]c2ccccc12)C(=O)N[C@H](C(=O)N[C@@H](C)C(=O)N[C@@H](CCC(N)=O)C(=O)N[C@@H](C)C(=O)N[C@@H](CC(C)C)C(=O)N[C@@H](CCCNC(=N)N)C(=O)NC1(C)CCCC=CCCCC(C)(C(=O)N[C@@H](Cc2ccccc2)C(=O)N[C@@H](CC(N)=O)C(=O)N[C@@H](C)C(=O)N[C@@H](Cc2ccc(O)cc2)C(=O)N[C@@H](Cc2ccc(O)cc2)C(=O)N[C@@H](C)C(=O)N[C@@H](CCCNC(=N)N)C(=O)N[C@@H](CCCNC(=N)N)C(N)=O)NC(=O)[C@H](CC(N)=O)NC(=O)CNC(=O)[C@H]([C@@H](C)CC)NC1=O)[C@@H](C)CC (stereo partly shown) [Compound 16, Ac-IWIAQALR$IGN$FNAYYARR-NH2]
pEC50 (Jurkat cell line): 6.30 | pKd (human serum proteins): 5.46 | fraction unbound [1]: 0.0058

CC[C@H](C)[C@H](NC(=O)[C@H](CCCNC(=N)N)NC(=O)[C@H](CCCNC(=N)N)NC(=O)[C@H](CCCNC(=N)N)NC(=O)[C@H](CC(C)C)NC(=O)[C@H](C)NC(C)=O)C(=O)NC1(C)CCCC=CCCCC(C)(C(=O)N[C@@H](Cc2c[nH]cn2)C(=O)N[C@@H](Cc2c[nH]cn2)C(=O)N[C@@H](CO)C(=O)N[C@H](C(N)=O)[C@@H](C)O)NC(=O)[C@H](C)NC(=O)[C@H](CS)NC(=O)[C@H](CC(C)C)NC1=O (stereo partly shown) [Compound 19, Ac- ALRRRI$LCA$HHST-NH2] (Ac-ALRRRI[ξαMeNle(6-ylidene)]LCA[ξαMeNle(6-ylidene)]HHST-NH2; staple 7-11)
pEC50 (Jurkat cell line): 5.62 | pKd (human serum proteins): 6.22 | fraction unbound [1]: 0.001
